Reference: PubChem BioAssay AID256 (DTP/NCI, 2004)
“And” between values parts separate entries of the source, which are not always exact repeats. Equal values may be shown once. Inconclusive results and toxic doses are left out. Rule for the calls: active = survival T/C of 150% or more; inactive = T/C below 125% in these data.

System: CD2F1 mice, L1210 leukemia ip, survival T/C
Experiment: NCI In Vivo Anticancer Drug Screen. Data for tumor model L1210 Leukemia (intraperitoneal) in CD2F1 (CDF1) mice
Settings: endpoint: mean survival time, higher = longer survival
Method in brief: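 Compound-dosed mice with transplantable tumor versus matched vehicle controls; endpoint ratio T/C reported.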

[1] = dose: 25.0 mg/kg/injection, schedule: Q04DX002 (ip), vehicle: saline with Tween-80
[2] = dose: 200.0 mg/kg/injection, schedule: Q04DX002 (ip), vehicle: saline with Tween-80
[3] = dose: 400.0 mg/kg/injection, schedule: Q04DX002 (ip), vehicle: saline with Tween-80
[4] = dose: 100.0 mg/kg/injection, schedule: Q04DX002 (ip), vehicle: saline with Tween-80
[5] = dose: 100.0 mg/kg/injection, schedule: Q04DX003 (ip), vehicle: Klucel (hydroxypropylcellulose) (HPC)
[6] = dose: 200.0 mg/kg/injection, schedule: Q04DX003 (ip), vehicle: Klucel (hydroxypropylcellulose) (HPC)
[7] = dose: 100.0 mg/kg/injection, schedule: Q01DX001 (ip), vehicle: saline
[8] = dose: 100.0 mg/kg/injection, schedule: Q01DX009 (ip), vehicle: saline with Tween-80
[9] = dose: 100.0 mg/kg/injection, schedule: Q04DX003 (ip), vehicle: saline with Tween-80
[10] = dose: 200.0 mg/kg/injection, schedule: Q01DX009 (ip), vehicle: saline with Tween-80
[11] = dose: 200.0 mg/kg/injection, schedule: Q04DX003 (ip), vehicle: saline with Tween-80
[12] = dose: 400.0 mg/kg/injection, schedule: Q04DX003 (ip), vehicle: saline with Tween-80
[13] = dose: 100.0 mg/kg/injection, schedule: Q04DX003 (ip), vehicle: saline
[14] = dose: 400.0 mg/kg/injection, schedule: Q01DX009 (ip), vehicle: saline with Tween-80
[15] = dose: 25.0 mg/kg/injection, schedule: Q04DX003 (ip), vehicle: saline with Tween-80
[16] = dose: 50.0 mg/kg/injection, schedule: Q04DX003 (ip), vehicle: saline with Tween-80
[17] = dose: 200.0 mg/kg/injection, schedule: Q01DX001 (ip), vehicle: saline
[18] = dose: 25.0 mg/kg/injection, schedule: Q01DX009 (ip), vehicle: saline with Tween-80

Measured: T/C

OCC1OC(n2ncc3c2N=CN2CCN=C32)C(O)C1O (stereo unspecified)
inactive: dose: 12.5 mg/kg/injection, schedule: Q01DX009 (ip), vehicle: water 95 % of control | dose: 25.0 mg/kg/injection, schedule: Q01DX009 (ip), vehicle: water 98 % of control | dose: 50.0 mg/kg/injection, schedule: Q01DX009 (ip), vehicle: water 102 % of control | dose: 100.0 mg/kg/injection, schedule: Q01DX009 (ip), vehicle: water 95 % of control | dose: 200.0 mg/kg/injection, schedule: Q01DX009 (ip), vehicle: water 95 % of control

COc1ccc(NC(=O)Nc2ccccc2C)c(OC)c1
inactive: [1] 88 % of control | dose: 50.0 mg/kg/injection, schedule: Q04DX002 (ip), vehicle: saline with Tween-80 88 % of control | [2] 90 % of control | [3] 90 % of control

O=S(CCO)c1c(Cl)c(Cl)c(Cl)c(Cl)c1Cl (stereo unspecified)
inactive: [4] 94 % of control | [2] 94 % of control

COc1ccc(NC(=O)Nc2ccccc2OC)c(Cl)c1
inactive: [4] 94 % of control | [2] 87 % of control | [3] 97 % of control

O=C1C2C3C=CC(C3)C2C(=NS(=O)(=O)c2ccccc2)C2C3C=CC(C3)C12 (stereo unspecified)
inactive: [5] 91 % of control | [6] 93 % of control | dose: 400.0 mg/kg/injection, schedule: Q04DX003 (ip), vehicle: Klucel (hydroxypropylcellulose) (HPC) 91 % of control

O=C1c2ccccc2CCC1(Br)C(Br)c1ccccc1 (stereo unspecified)
inactive: dose: 100.0 mg/kg/injection, schedule: Q01DX009 (ip), vehicle: Klucel (hydroxypropylcellulose) (HPC) 100 % of control | dose: 200.0 mg/kg/injection, schedule: Q01DX009 (ip), vehicle: Klucel (hydroxypropylcellulose) (HPC) 100 % of control | dose: 400.0 mg/kg/injection, schedule: Q01DX009 (ip), vehicle: Klucel (hydroxypropylcellulose) (HPC) 96 % of control

CC12CCC(=O)C=C1CCC1C2C(=O)CC2(C)C1CCC2(O)C(=O)Cn1c(=O)[nH]cc(F)c1=O (stereo unspecified)
inactive: dose: 12.5 mg/kg/injection, schedule: Q04DX003 (ip), vehicle: Klucel (hydroxypropylcellulose) (HPC) 103 % of control | dose: 25.0 mg/kg/injection, schedule: Q04DX003 (ip), vehicle: Klucel (hydroxypropylcellulose) (HPC) 97 % of control | dose: 50.0 mg/kg/injection, schedule: Q04DX003 (ip), vehicle: Klucel (hydroxypropylcellulose) (HPC) 100 % of control | [5] 97 % of control | [6] 97 % of control

c1ccc(C[As+](c2ccccc2)(c2ccccc2)c2ccccc2)cc1
inactive: [1] 96 % of control

Cc1nc(N)nc2ccccc12
inactive: [7] 100 % of control

C#CCSc1c(Cl)c(Cl)c(Cl)c(Cl)c1Cl
inactive: [4] 87 % of control | [2] 95 % of control | [3] 87 % of control

O=[N+]([O-])c1cc(Cl)c(Cl)cc1Cl
inactive: [8] 92 % of control | [9] 106 % of control | [10] 104 % of control | [11] 101 % of control | [12] 118 % of control

CC1(C)COC(Cc2ccccc2Br)=N1
inactive: [13] 101 % of control | dose: 200.0 mg/kg/injection, schedule: Q04DX003 (ip), vehicle: saline 93 % of control | dose: 400.0 mg/kg/injection, schedule: Q04DX003 (ip), vehicle: saline 93 % of control

CCCCCCCC(=O)N1CCCN(C(=O)CCCCCCC)C1
inactive: dose: 25.0 mg/kg/injection, schedule: Q04DX003 (ip), vehicle: saline 94 % of control | dose: 50.0 mg/kg/injection, schedule: Q04DX003 (ip), vehicle: saline 95 % of control | [13] 97 % of control

CCCCCCCCCCCCCCCC[N+]1(C)CCSCC1
inactive: dose: 0.78 mg/kg/injection, schedule: Q01DX009 (ip), vehicle: saline 93 % of control and 103 % of control | dose: 1.56 mg/kg/injection, schedule: Q04DX003 (ip), vehicle: saline 106 % of control | dose: 3.13 mg/kg/injection, schedule: Q01DX001 (ip), vehicle: saline 104 % of control | dose: 3.13 mg/kg/injection, schedule: Q04DX003 (ip), vehicle: saline 110 % of control | dose: 6.25 mg/kg/injection, schedule: Q01DX001 (ip), vehicle: saline 104 % of control | dose: 6.25 mg/kg/injection, schedule: Q04DX003 (ip), vehicle: saline 104 % of control | dose: 12.5 mg/kg/injection, schedule: Q01DX001 (ip), vehicle: saline with Tween-80 97 % of control | dose: 12.5 mg/kg/injection, schedule: Q01DX001 (ip), vehicle: saline 104 % of control | dose: 12.5 mg/kg/injection, schedule: Q04DX003 (ip), vehicle: saline 102 % of control | dose: 25.0 mg/kg/injection, schedule: Q01DX001 (ip), vehicle: saline with Tween-80 95 % of control | dose: 25.0 mg/kg/injection, schedule: Q01DX001 (ip), vehicle: saline 104 % of control | dose: 25.0 mg/kg/injection, schedule: Q01DX009 (ip), vehicle: saline 87 % of control | dose: 25.0 mg/kg/injection, schedule: Q04DX002 (ip), vehicle: saline 88 % of control | dose: 50.0 mg/kg/injection, schedule: Q01DX001 (ip), vehicle: saline with Tween-80 100 % of control

O=C(Cn1ccc(=O)[nH]c1=O)c1c[nH]c2ccccc12
inactive: [4] 108 % of control | [2] 108 % of control | [3] 104 % of control

CCCCCCCCCCCCCCCCCCn1cnc2c(Cl)ncnc21
inactive: dose: 12.5 mg/kg/injection, schedule: Q01DX005 (ip), vehicle: other 87 % of control | dose: 25.0 mg/kg/injection, schedule: Q01DX005 (ip), vehicle: other 91 % of control | dose: 50.0 mg/kg/injection, schedule: Q01DX005 (ip), vehicle: other 92 % of control | dose: 200.0 mg/kg/injection, schedule: Q01DX005 (ip), vehicle: other 86 % of control

C=CS(=O)(=O)c1ccc([N+](=O)[O-])cc1
inactive: [1] 88 % of control

NC(=O)NC(CC(=O)O)C(=O)O (stereo unspecified)
inactive: [8] 96 % of control | [10] 98 % of control | [14] 95 % of control

CC(=O)c1cc2ccccc2o1
inactive: dose: 6.25 mg/kg/injection, schedule: Q04DX003 (ip), vehicle: saline with Tween-80 96 % of control | dose: 12.5 mg/kg/injection, schedule: Q04DX003 (ip), vehicle: saline with Tween-80 96 % of control | [15] 101 % of control | [16] 95 % of control

OCC1OC(n2c(SCc3ccccc3)nc3ccccc32)C(O)C1O (stereo unspecified)
inactive: [7] 102 % of control | [17] 102 % of control | dose: 400.0 mg/kg/injection, schedule: Q01DX001 (ip), vehicle: saline 97 % of control

Cc1cnc(O[Si](C)(C)C)nc1O[Si](C)(C)C
inactive: [8] 97 % of control | [9] 97 % of control | [10] 96 % of control | [11] 98 % of control | [14] 103 % of control | [12] 101 % of control

COC1OC(CN2C(=O)c3ccccc3C2=O)C2OC(C)(C)OC12 (stereo unspecified)
inactive: [8] 98 % of control | [10] 94 % of control | [14] 98 % of control

COC(=O)C1=C(NC(=O)Nc2ccc(OC)cc2)OC(C)(C)C1c1ccc(Cl)cc1 (stereo unspecified)
inactive: [8] 93 % of control | [9] 92 % of control | [10] 93 % of control | [11] 87 % of control | [14] 94 % of control | [12] 92 % of control

Cc1cc(Cl)ccc1NC(=O)Nc1c(Oc2ccc(Cl)cc2)ccc(Cl)c1S(=O)(=O)O
inactive: [7] 96 % of control | [17] 98 % of control

COc1ccc(C(C)c2ccccc2)cc1 (stereo unspecified)
inactive: [8] 97 % of control | [10] 95 % of control | [14] 97 % of control

COC12C(COC(N)=O)C3=C(C(=O)C(C)=C(NC(C)C)C3=O)N1CC1NC12 (stereo unspecified)
inactive: dose: 1.5 mg/kg/injection, schedule: Q01DX001 (ip), vehicle: water 96 % of control (2×) and 102 % of control | dose: 48.0 mg/kg/injection, schedule: Q01DX001 (ip), vehicle: water 87 % of control

CCOC(=O)c1ccc(OC(=O)Nc2cc(OC)ccc2OC)cc1
inactive: [8] 93 % of control | [10] 92 % of control

C/C=C1/C[C@@H](C)[C@@](C)(O)C(=O)OCC2=CCN3CC[C@@H](OC1=O)[C@@H]23
inactive: [16] 103 % of control | [9] 103 % of control | [11] 98 % of control

Nc1cccc(C(=O)O)c1C(=O)O
inactive: [18] 93 % of control

COc1ccc(C(CC(=O)c2ccccc2)CC(=O)c2ccccc2)cc1
inactive: [18] 94 % of control | [15] 101 % of control | dose: 50.0 mg/kg/injection, schedule: Q01DX009 (ip), vehicle: saline with Tween-80 96 % of control | [16] 93 % of control | [9] 87 % of control
